This assay has as its target T1, HsTOP1 (Homo sapiens, UniProt P11387).
T1 construct: gene TOP1; recombinant human TOP1, wild type, purified from baculovirus expression
T1 sequence (P11387 2-765): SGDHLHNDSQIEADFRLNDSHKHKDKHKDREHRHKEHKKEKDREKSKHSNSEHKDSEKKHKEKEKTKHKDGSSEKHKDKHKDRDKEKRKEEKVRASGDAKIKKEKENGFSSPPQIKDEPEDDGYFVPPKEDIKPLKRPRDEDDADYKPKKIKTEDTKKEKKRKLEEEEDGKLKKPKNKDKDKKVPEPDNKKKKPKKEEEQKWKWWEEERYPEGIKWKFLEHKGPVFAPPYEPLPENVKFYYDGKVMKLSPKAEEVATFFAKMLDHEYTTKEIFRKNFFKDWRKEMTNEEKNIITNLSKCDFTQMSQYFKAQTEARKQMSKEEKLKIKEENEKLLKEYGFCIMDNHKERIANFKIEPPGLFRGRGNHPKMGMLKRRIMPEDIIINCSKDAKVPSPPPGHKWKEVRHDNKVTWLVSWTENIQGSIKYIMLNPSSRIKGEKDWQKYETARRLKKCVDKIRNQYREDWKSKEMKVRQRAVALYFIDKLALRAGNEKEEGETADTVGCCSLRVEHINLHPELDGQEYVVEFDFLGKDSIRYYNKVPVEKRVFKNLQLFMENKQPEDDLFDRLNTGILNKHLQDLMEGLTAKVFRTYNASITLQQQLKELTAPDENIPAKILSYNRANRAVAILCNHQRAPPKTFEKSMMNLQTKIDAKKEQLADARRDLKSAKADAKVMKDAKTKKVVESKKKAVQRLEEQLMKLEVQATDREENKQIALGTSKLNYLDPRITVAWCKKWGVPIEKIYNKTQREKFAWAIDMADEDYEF
In words: […]-labelled oligonucleotide cleavage assay, denaturing PAGE. Type of assay: biochemical. The conditions noted are these: traps TOP1-DNA cleavage complex; 30-bp DNA, pH 7.5, 5 mM Mg2+, 50 mM KCl, 25 °C.

For `CC[C@@]1(O)C(=O)OCc2c1cc1n(c2=O)Cc2cc3ccccc3nc2-1` [CPT, camptothecin], the CPT-dependent cleavage bands result is “incubation of HsTOP1 induced TOP1ccs exclusively in the presence of CPT”.

For the origin of these results see PMC8748870, “Topoisomerase I (TOP1) dynamics: conformational transition from open to closed states” (Nature Communications, 2022).
